Converted amounts (≈) assume the structure as drawn. The source made the active and inactive calls. The calls are words filed in the database; no cut-off is given here.
Experiments:
Pseudomonas sp. [1] = assay: Antibacterial activity against gentamicin-resistant Pseudomonas spp. clinical isolate assessed as susceptible isolates after 18 hrs by agar dilution method; assay type: functional
[2] = tested on: Staphylococcus epidermidis; assay: Bactericidal activity against Staphylococcus epidermidis isolate 01-55 at >=1 MIC up to 8 hrs by time-kill study; assay type: functional, organism-based
[3] = tested on: Acinetobacter calcoaceticus; assay: Antibacterial activity against non-gentamicin-resistant Acinetobacter calcoaceticus clinical isolate assessed as susceptible isolates after 18 hrs by agar dilution method; assay type: functional
Providencia rettgeri = assay: Antibacterial activity against gentamicin-resistant Proteus rettgeri clinical isolate after 18 hrs by agar dilution method; assay type: functional
Serratia marcescens [4] = assay: Antibacterial activity against gentamicin-resistant Serratia marcescens clinical isolate after 18 hrs by agar dilution method; assay type: functional
Citrobacter freundii = assay: Antibacterial activity against non-gentamicin-resistant Citrobacter freundii clinical isolate assessed as susceptible isolates after 18 hrs by agar dilution method; assay type: functional
Proteus mirabilis = assay: Antibacterial activity against gentamicin-resistant Proteus mirabilis clinical isolate assessed as susceptible isolates after 18 hrs by agar dilution method; assay type: functional
Serratia marcescens [5] = assay: Antibacterial activity against non-gentamicin-resistant Serratia marcescens clinical isolate after 18 hrs by agar dilution method; assay type: functional
Klebsiella pneumoniae [6] = assay: Antibacterial activity against Klebsiella pneumoniae isolate 01-21 after 18 hrs by agar dilution method; assay type: functional
Citrobacter koseri = assay: Antibacterial activity against gentamicin-resistant Citrobacter diversus clinical isolate assessed as susceptible isolates after 18 hrs by agar dilution method; assay type: functional
Haemophilus influenzae = assay: Antibacterial activity against non-gentamicin-resistant Haemophilus influenzae clinical isolate assessed as susceptible isolates after 18 hrs by agar dilution method; assay type: functional, organism-based
[7] = tested on: Haemophilus parainfluenzae; assay: Antibacterial activity against non-gentamicin-resistant Haemophilus parainfluenzae clinical isolate assessed as susceptible isolates after 18 hrs by agar dilution method; assay type: functional, organism-based
Klebsiella pneumoniae [8] = assay: Antibacterial activity against Klebsiella pneumoniae isolate 01-21 at 1 MIC up to 8 hrs by time-kill study; assay type: functional, organism-based
[9] = tested on: Staphylococcus epidermidis; assay: Antibacterial activity against non-gentamicin-resistant Staphylococcus epidermidis clinical isolate assessed as susceptible isolates after 18 hrs by agar dilution method; assay type: functional
Klebsiella pneumoniae [10] = assay: Antibacterial activity against non-gentamicin-resistant Klebsiella pneumoniae clinical isolate assessed as susceptible isolates after 18 hrs by agar dilution method; assay type: functional
Staphylococcus aureus [11] = assay: Antibacterial activity against Staphylococcus aureus ATCC 29213 after 18 hrs by agar dilution method; assay type: functional
Pseudomonas sp. [12] = assay: Antibacterial activity against gentamicin-resistant Pseudomonas spp. clinical isolate after 18 hrs by agar dilution method; assay type: functional
Staphylococcus aureus [13] = assay: Antibacterial activity against non-gentamicin-resistant Staphylococcus aureus clinical isolate assessed as susceptible isolates after 18 hrs by agar dilution method; assay type: functional
[14] = tested on: Staphylococcus epidermidis; assay: Antibacterial activity against Staphylococcus epidermidis isolate 01-55 after 18 hrs by agar dilution method; assay type: functional
Escherichia coli [15] = assay: Antibacterial activity against gentamicin-resistant Escherichia coli clinical isolate assessed as susceptible isolates after 18 hrs by agar dilution method; assay type: functional
[16] = tested on: Staphylococcus epidermidis; assay: Antibacterial activity against non-gentamicin-resistant Staphylococcus epidermidis clinical isolate after 18 hrs by agar dilution method; assay type: functional
Klebsiella pneumoniae [17] = assay: Antibacterial activity against gentamicin-resistant Klebsiella pneumoniae clinical isolate after 18 hrs by agar dilution method; assay type: functional
Staphylococcus aureus [18] = assay: Bactericidal activity against Staphylococcus aureus ATCC 29213 at >=1 MIC up to 8 hrs by time-kill study; assay type: functional, organism-based
Enterobacter cloacae = assay: Antibacterial activity against non-gentamicin-resistant Enterobacter cloacae clinical isolate assessed as susceptible isolates after 18 hrs by agar dilution method; assay type: functional
Klebsiella aerogenes = assay: Antibacterial activity against gentamicin-resistant Enterobacter aerogenes clinical isolate after 18 hrs by agar dilution method; assay type: functional
Serratia marcescens [19] = assay: Antibacterial activity against non-gentamicin-resistant Serratia marcescens clinical isolate assessed as susceptible isolates after 18 hrs by agar dilution method; assay type: functional
Escherichia coli [20] = assay: Antibacterial activity against Escherichia coli ATCC 25922 at MIC up to 8 hrs by time-kill study; assay type: functional, organism-based
[21] = tested on: Acinetobacter calcoaceticus; assay: Antibacterial activity against non-gentamicin-resistant Acinetobacter calcoaceticus clinical isolate after 18 hrs by agar dilution method; assay type: functional
[22] = tested on: Escherichia coli BL21(DE3); assay: Phosphorylation activity of AAC(6')-APH(2'') in Escherichia coli BL21(DE3) assessed as oxidation of NADH by pyruvate kinase
[23] = tested on: Escherichia coli BL21(DE3); assay: Ratio of Vmax to Km for AAC(6')-APH(2'') in Escherichia coli BL21(DE3) assessed as oxidation of NADH by pyruvate kinase relative to netilmicin
[24] = tested on: Escherichia coli BL21(DE3); assay: Phosphorylation activity of AAC(6')-APH(2'') in Escherichia coli BL21(DE3) assessed as oxidation of NADH by pyruvate kinase relative to verdamicin

Compound | Activity (Pseudomonas sp. [1]) [%] | Activity [3] [%] | MIC50 (Providencia rettgeri) [µg/mL] | MIC90 (Providencia rettgeri) [µg/mL] | MIC50 (Serratia marcescens [4]) [µg/mL] | MIC90 (Serratia marcescens [4]) [µg/mL] | Activity (Citrobacter freundii) [%] | Activity (Proteus mirabilis) [%] | MIC50 (Serratia marcescens [5]) [µg/mL] | MIC90 (Serratia marcescens [5]) [µg/mL] | Activity (Citrobacter koseri) [%] | Activity (Haemophilus influenzae) | Activity [7] | Activity [9] [%] | Activity (Klebsiella pneumoniae [10]) [%] | MIC50 (Pseudomonas sp. [12]) [µg/mL] | MIC90 (Pseudomonas sp. [12]) [µg/mL] | Activity (Staphylococcus aureus [13]) [%] | Activity (Escherichia coli [15]) [%] | MIC50 [16] [µg/mL] | other results
GENTAMICIN | 0 | 98 | 64 | 128 | > 128 | > 128 | 100 | 0 | 0.25 | 0.5 | 0 | inactive | inactive | 92.5 | 100 | 128 | > 128 | 85.7 | 0 | 0.06 | Activity [2]: Dose-dependent effect; MIC (Klebsiella pneumoniae [6]): 0.25 µg/mL; Activity (Klebsiella pneumoniae [8]): Dose-dependent effect; MIC (Staphylococcus aureus [11]): 0.125 µg/mL; MIC [14]: 1 µg/mL; MIC90 [16]: 4 µg/mL; MIC50 (Klebsiella pneumoniae [17]): 128 µg/mL; MIC90 (Klebsiella pneumoniae [17]): > 128 µg/mL; Activity (Staphylococcus aureus [18]): Dose-dependent effect; Activity (Enterobacter cloacae): 98.2%; MIC50 (Klebsiella aerogenes): > 128 µg/mL; MIC90 (Klebsiella aerogenes): > 128 µg/mL; Activity (Serratia marcescens [19]): 100%; Activity (Escherichia coli [20]): Dose-dependent effect; MIC50 [21]: 0.25 µg/mL; MIC90 [21]: 2 µg/mL
NCC[C@H](O)C(=O)N[C@@H]1C[C@H](N)[C@@H](O[C@H]2O[C@H](CN)[C@@H](O)[C@H](O)[C@H]2O)[C@H](O)[C@H]1O[C@H]1O[C@H](CO)[C@@H](O)[C@H](N)[C@H]1O [AMIKACIN] | 7.7 | 98 | 1 (≈ 1.71 µM) | 32 (≈ 54.6 µM) | > 128 | > 128 | 100 | 63.6 | 1 (≈ 1.71 µM) | 2 (≈ 3.42 µM) | 35.7 | inactive | inactive | 98.8 | 100 | > 128 | > 128 | 100 | 93 | 0.5 (≈ 0.854 µM) | MIC90 [16]: 2 µg/mL (≈ 3.42 µM); MIC50 (Klebsiella pneumoniae [17]): 1 µg/mL (≈ 1.71 µM); MIC90 (Klebsiella pneumoniae [17]): > 128 µg/mL; Activity (Enterobacter cloacae): 96.4%; MIC50 (Klebsiella aerogenes): 16 µg/mL (≈ 27.3 µM); MIC90 (Klebsiella aerogenes): 64 µg/mL (≈ 109 µM); Activity (Serratia marcescens [19]): 96.3%; MIC50 [21]: 0.5 µg/mL (≈ 0.854 µM); MIC90 [21]: 2 µg/mL (≈ 3.42 µM)
CCN[C@@H]1C[C@H](N)[C@@H](O[C@H]2OC(CN)=CC[C@H]2N)[C@H](O)[C@H]1O[C@H]1OC[C@](C)(O)[C@H](NC)[C@H]1O [NETILMICIN] | 0 | 87.8 | 16 (≈ 33.6 µM) | 128 (≈ 269 µM) | > 128 | > 128 | 83.3 | 36.4 | 1 (≈ 2.1 µM) | 4 (≈ 8.41 µM) | 7.1 | inactive | inactive | 100 | 94 | > 128 | > 128 | 88.3 | 66.7 | 0.25 (≈ 0.526 µM) | Km [22]: 308 µM; MIC90 [16]: 1 µg/mL (≈ 2.1 µM); Vmax/Km [23]: 7.4%; MIC50 (Klebsiella pneumoniae [17]): 32 µg/mL (≈ 67.3 µM); MIC90 (Klebsiella pneumoniae [17]): > 128 µg/mL; Activity (Enterobacter cloacae): 98.2%; MIC50 (Klebsiella aerogenes): 32 µg/mL (≈ 67.3 µM); MIC90 (Klebsiella aerogenes): 128 µg/mL (≈ 269 µM); Activity (Serratia marcescens [19]): 96.3%; Vmax [24]: 55%; MIC50 [21]: 1 µg/mL (≈ 2.1 µM); MIC90 [21]: 16 µg/mL (≈ 33.6 µM)

Source: ChEMBL document CHEMBL1275533, “In vitro antibacterial activity of vertilmicin and its susceptibility to modifications by the recombinant AAC6'-APH2'' enzyme” (2008)
